From patent US8367316B2, “Human gastrointestinal stem cell-derived primary intestinal epithelial cell system and methods of use thereof” (AlfaGene Bioscience, Inc., priority 2009, dated 2013)

Assays:
Type in all cases: cell-based, human
[1] = system: HIPEC monolayers; assay: Inulin permeability of HIPEC monolayers grown on TransWell filters, with or without pro-inflammatory cytokines; conditions: cytokine treatment 24 hrs, 3H-labeled Inulin, +/- standard error
Protocol: Intestinal stem cell derived primary epithelial cell mono layers were tested for Inulin permeability.
Confluent monolayers of HIPEC cells were grown on transwell membranes in triplicates. Cells were then treated with or without pro-inflammatory cytokines for 24 hrs. ^3H-labeled Inulin was added to the upper chamber. Aliquots of medium retrieved from the upper and lower chambers were counted.
The % amount of inulin activity transported from the upper to the lower chamber was determined. The results are shown in Table 5 below, along with the standard error.

[2] = system: hGISC derived primary ECs; assay: Nitric oxide production after immunostimulation, Griess reaction assay; conditions: agent alone; LPS (1 μm/ml), IFN-γ (200 u/ml); 24 hours; culture supernatants
Source text: (§1) Therefore, to gain insight about NO production regulation by intestinal EC, the effects of innate (LPS) and adaptive (IFN-γ) immunostimulatory agents on embodiments of the hGISC cell system derived non-transformed primary epithelial cells (EC) were studied and compared to a colonic adenocarcinoma EC line HT29.
[…] Cell free culture supernatants were collected and analyzed for NO content using a Griess Reaction kit (e.g., Griess Reagent System, Part #TB229) (PROMEGA, Madison, Wis.) in accordance with the manufacturer's instructions.
(§2) In another assay for NO, a macrophage cell line MHS served as a positive control. Cells were cultured with/without LPS (1 μm/ml), IFN-γ (200 u/ml), or in combination for 24 hours. Culture supernatants were analyzed for NO content by Griess reaction assay (as mentioned herein).

[3] = system: HT29 cells; assay: as above; conditions: agent alone; LPS (1 μm/ml), IFN-γ (200 u/ml); 24 hours; culture supernatants
Protocol: as §1, §2

[4] = system: HIPEC line (A2J1); assay: Response to inflammatory mediators, IL-8 read-out; conditions: stimulators at various concentrations
Protocol: Using both IL-8 and MIP-3α read-out procedures, an HIPEC line of the present invention (A2J1) was tested for response to various inflammatory mediators (stimulators). The HIPEC line was compared to a Caco-2 cell line. The following stimulators were used at various concentrations: IL-1β; TNFα; IFNγ; Pam3CSK4 (TLR2); LPS (TLR4); and Flagellin (TLR5).

[5] = system: HIPEC line A2J1; assay: qPCR of markers for mature phenotype cells in HIPEC line upon cytokine stimulation; conditions: 1 ng/ml IL-1b or 25 ng/ml TNFα (24 hrs)
Protocol: Using qPCR, the HIPEC line was also tested for various markers for mature phenotype cells, including the following cell subtypes: enteroendocrine; Goblet; Paneth; and enterocyte. The following markers were used, with the corresponding cell subtypes in parentheses: Somatostatin (enteroendocrine); Glucagon (enteroendocrine); Lysozyme (Goblet/Paneth); Defensin 5 (Goblet/Paneth); Trefoil factor 3 (Goblet/Paneth); Mucin 2 (Goblet/Paneth); Sucrose isomaltase (enterocyte); Carbonic anhydrase (enterocyte); Cd×2 promoter (enterocyte); and Guanylate cyclase c (enterocyte). Data from these tests supported a Goblet/secretory differentiation profile for the HIPEC line identified as A2J1 (derived from jejunem tissue).

[6] = system: TLR2; assay: Regulation of TLR expression by LPS on hGISC-derived primary epithelial cell line (FIG. 18); conditions: LPS stimulation of HIPEC line, preliminary experiment
[7] = system: TLR4; assay: as above; conditions: LPS stimulation of HIPEC line, preliminary experiment
[8] = system: TLR6; assay: as above; conditions: LPS stimulation of HIPEC line, preliminary experiment
[9] = Experiment #1, Medium Only 35.5% +/− 5.3
[10] = Experiment #2, Medium Only 41.6% +/− 0.96
[11] = Experiment #3, Medium Only 43.6% +/− 1.16

Molecule	% amount of inulin activity transported from the upper to the lower chamber [1, 9]	% amount of inulin activity transported from the upper to the lower chamber [1, 10]	% amount of inulin activity transported from the upper to the lower chamber [1, 11]	NO production [2]	NO production [3]	IL-8 response [4]	change in phenotype upon stimulation [5]	TLR2 expression [6]	TLR4 expression [7]	TLR6 expression [8]
IFN-γ: interferon; adaptive immunostimulatory agent	36.0% +/− 2.8	42.6% +/− 2.07	42.7% +/− 0.30	neither LPS nor IFN-γ alone affect NO production	neither LPS nor IFN-γ alone affect NO production	responsive				
IL-1β: pro-inflammatory cytokine; interleukin	43.5% +/− 1.36	50.4% +/− 0.94	54.0% +/− 1.59			responsive	no change in phenotype			
IL-6: pro-inflammatory cytokine	36.5% +/− 0.48	41.8% +/− 0.59								
lipopolysaccharide [LPS]				neither LPS nor IFN-γ alone affect NO production	neither LPS nor IFN-γ alone affect NO production			upregulated	upregulated	upregulated
tumor necrosis factor alpha [TNF-α]	41.2% +/− 0.66	46.6% +/− 1.05	49.0% +/− 1.95			responsive	no change in phenotype			
IL-1α: pro-inflammatory cytokine (protein, UniProt P01583 113-271, looked up) Interleukin-1 alpha: SAPFSFLSNVKYNFMRIIKYEFILNDALNQSIIRANDQYLTAAALHNLDEAVKFDMGAYKSSKDDAKITVILRISKTQLYVTAQDEDQPVLLKEMPEIPKTITGSETNLLFFWETHGTKNYFTSVAHPNLFIATKQDYWVCLAGGPPSITDFQILENQA	40.0% +/− 3.6	47.4% +/− 0.59	50.7% +/− 0.40							
